# Where a SMILES comes first, the peptide text is derived from it. Bridges are numbered along the chain shown (N, C = ends). Roman numbers before positions name the chains, in order. Triazole bridges read from a SMILES are 1,4-linked. Where no end group is shown, it is not given here. Side-chain parts run from the residue outwards. [ ]: non-standard residue; d: D form. The star is where a group is joined. X2 = CN1C(=C/C=C/C=C/C2=[N+](CCCCCC(=O)*)c3ccc(S(=O)(=O)[O-])cc3C2(C)C)C(C)(C)c2cc(S(=O)(=O)O)ccc21; X1 = CN1C(=CC=CC=CC2=[N+](CCCCCC(=O)*)c3ccc(S(=O)(=O)[O-])cc3C2(C)C)C(C)(C)c2cc(S(=O)(=O)O)ccc21; Lys(N3) = [N-]=[N+]=NCCCC[C@H](N)C(=O)O; Cit = NC(=O)NCCC[C@H](N)C(=O)O; d(hCys) = N[C@H](CCS)C(=O)O; PEG3 = NCCOCCOCCOCCC(=O)O; Pra = C#CC[C@H](N)C(=O)O
# Experiments:
# HEK293_CMKLR1-eYFP cells = assay: Intracellular peptide stability (cleavage products in cell lysate, RP-HPLC, MALDI-ToF-MS); conditions: 1 μM peptide; for intact peptide in cell lysate: 15 min to 24 h, RP-HPLC λex 640 nm λem 670 nm; for cleavage site identified by MALDI-ToF-MS: PMIγ sequence remained intact
# Method: 3 Quantification of Cy5-labeled peptides in the cytosol. (A) RP-HPLC (λex = 640 nm, λem = 670 nm) of cleavage products of Cy5-labeled peptides in the lysate of HEK293_CMKLR1-eYFP cells after incubation with 1 μM peptide for different durations. […] (B) Representative fluorescence correlation spectroscopy (FCS) autocorrelation curves of Cy5-labeled peptides measured in the cytosol of HEK293_CMKLR1-eYFP cells after 72 h of incubation. Measured curves were fitted with a model for hindered 3D diffusion and diffusion time t D and anomalous coefficient α were calculated from the fit. Autocorrelation data represent mean ± SD of up to 10 consecutive 5 s measurements in a single cell. (C) Intracellular concentrations of Cy5-labeled peptides after 72 h incubation calculated from the fitted autocorrelation curves obtained in HEK293_CMKLR1-eYFP, HMEC-1, and THP-1 cells. Each data point corresponds to FCS measurements from the cytosol of a single cell. Median with the interquartile range is shown. Data from three independent experiments. Statistical comparison by log-normal unpaired t test. ***p ≤ 0.001, **p ≤ 0.01, *p ≤ 0.05, ns – not significant. […] (D) Calculated diffusion coefficients from the fitted autocorrelation curves. Median with the interquartile range is shown.
# Intracellular peptide stability
# 2 mL of 1 µM Cy5-labeled peptide in DMEM/Ham's F12 (1:1) + 15% FBS without phenol red were incubated on stably transfected HEK293_CMKLR1-eYFP cells in T25 cell culture flasks for 15 min to 24 h. The cells were washed with cold acidic wash (50 mM glycine, 100 mM sodium chloride, pH 3) and phosphate-buffered saline (PBS, Biowest) and harvested into 300 µl cold PBS with HaltTM Protease inhibitor cocktail (Thermo).
# Suspended cells were homogenized with zirconia beads on a FastPrep-24 5G system (MP Biomedical) for 30 s and cellular proteins were precipitated from 600 µL ACN/ethanol (1:1) + 0.1% TFA at -20 °C for 2 h.
# Cell lysates were then filtered through Costar Spin-X tubes, separated by RP-HPLC and isolated peaks were identified by MALDI-ToF MS (Ultraflextreme, Bruker). Experiments were performed at least twice and representative RP-HPLC chromatograms are shown.
# MDA-MB-231 cells = assay: Fluorescence correlation spectroscopy (FCS) in the cytosol; format: cell-based; conditions: 72 h
# From the text: Fluorescence correlation spectroscopy (FCS) […] Prior to measurements, the correction collar of the objective […] 1 τ 1 1 (Equation 2) G(τ) = ∗ (1 - […] 1 + ( τ )α √1 + S2 ∗ ( τ )α τD τD 4
# [1] = biological target: T1, recombinant human GST-MDM2 (Homo sapiens, UniProt Q00987); assay: Fluorescence polarization binding of Cy5-labeled peptides to MDM2; conditions: 20 nM Cy5-labeled peptide, FP buffer pH 7.4, 30 min room temperature; performed twice in technical triplicates
# T1 construct: purchased R&D Systems
# Method: (B) Fluorescence polarization measurement of 20 nM Cy5-labeled peptides binding to recombinant human GST-MDM2.
# 20 nM of Cy5-labeled peptides were added to dilutions of human MDM2 (Recombinant Human GST -
# MDM2/HDM2, R&D Systems) in FP buffer (50 mM tris(hydroxymethyl)aminomethane (Tris, Carl Roth),
# 150 mM sodium chloride (Sigma), 1 mM EDTA (Sigma), 0.01% (v/v) Tween20 (Sigma), pH 7.4) and
# incubated for 30 min at room temperature. Fluorescence polarization was then measured in a Tecan
# Spark plate reader (λex = 640 nm, λem = 670 nm). Measurements were performed twice in technical
# triplicates. Data was then fit with Prism 10 (GraphPad) using non-linear regression with the following
# solution to the quadratic binding equation 1 to obtain Kd:
# 𝐹𝑃 = 𝐹𝑃 + (𝐹𝑃 − 𝐹𝑃 ) ∗ 𝑐 + 𝑐 + 𝐾 − 𝑝𝑒𝑝𝑡𝑖𝑑𝑒 𝑀𝐷𝑀2 𝑑 𝑝𝑒𝑝𝑡𝑖𝑑𝑒 𝑀𝐷𝑀2
# [2] = test system: HEK293_CMKLR1-eYFP, HMEC-1, MDA-MB-231 and THP-1 cells; assay: Quantification of total cellular peptide uptake in cell lysate; format: cell-based; conditions: 1 µM peptide, 72 h, fluorescence in lysate, all cell lines; performed thrice
# Method: page 7: Quantification of total cellular peptide uptake of different cell lines MDA-MB-231 cells and stably transfected HEK293_CMKLR1-eYFP cells were seeded at 165,000 cells per well and HMEC-1 cells at 55,000 cells per well into poly-ᴅ-lysine coated 12-well plates in their respective cell culture medium. […] the cells and incubated for 72 h. Cells were then washed with PBS and detached with trypsin/EDTA. […] Suspended cells were washed thrice with Fluorobrite DMEMTM and collected by centrifugation at 500 g for 5 min after each step. Finally, cells were resuspended in […] Fluorobrite DMEMTM and cell density was determined with an automated cell counter (Cell Drop, DeNovix). Cell suspensions were then lysed by ultrasonic homogenization (U[…], Hielscher) for 2 × 10 s on ice to prevent self-quenching of Cy5 due to high local concentrations in vesicles. […] Quantification of receptor-mediated uptake in CMKLR1-expressing cell lines. (A) Cell-surface enzyme-linked immunosorbent assay (ELISA) for the quantification of CMKLR1 expression of different cell lines. […] For quantification, cells were detached, counted, lysed by ultrasonic homogenization, and fluorescence was measured in the lysate. Total peptide uptake per cell was calculated from a dilution series of Cy5-labeled peptide with known concentration. […]
# T1 sequence (Q00987 whole entry): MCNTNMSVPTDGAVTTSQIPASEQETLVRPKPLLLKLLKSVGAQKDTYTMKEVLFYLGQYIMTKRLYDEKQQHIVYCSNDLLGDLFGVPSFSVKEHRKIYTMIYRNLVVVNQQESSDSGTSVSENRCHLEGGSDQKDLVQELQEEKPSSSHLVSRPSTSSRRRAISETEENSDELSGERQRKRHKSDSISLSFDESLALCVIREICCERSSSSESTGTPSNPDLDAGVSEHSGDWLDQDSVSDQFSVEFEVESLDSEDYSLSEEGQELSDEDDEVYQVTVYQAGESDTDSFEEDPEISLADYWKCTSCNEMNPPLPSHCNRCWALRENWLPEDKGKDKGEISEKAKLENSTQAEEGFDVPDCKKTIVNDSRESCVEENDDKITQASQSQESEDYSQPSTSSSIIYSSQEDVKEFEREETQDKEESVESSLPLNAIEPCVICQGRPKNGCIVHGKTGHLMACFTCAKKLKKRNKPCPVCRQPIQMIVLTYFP
Compound,intact peptide in cell lysate (HEK293_CMKLR1-eYFP cells),cleavage site identified by MALDI-ToF-MS (HEK293_CMKLR1-eYFP cells; lysate),cytosolic FCS measurement (MDA-MB-231 cells),incubation time after which a singular cleavage product peak was observed (HEK293_CMKLR1-eYFP cells; RP-HPLC of lysate),"fate of the hsLMWP sequence (HEK293_CMKLR1-eYFP cells; lysate, MALDI-ToF-MS)",Kd [1],total peptide uptake per cell [2]
CC(=O)N[C@@H](CCCCn1cc(C[C@H](NC(=O)CCOCCOCCOCCNC(=O)[C@H](CCCNC(N)=O)NC(=O)[C@@H](NC(=O)[C@H](CCC(=O)O)NC(=O)CNC(=O)CNC(=O)[C@@H](CCCNC(=N)N)NC(=O)[C@@H](CC(C)C)NC(=O)[C@@H](CC(C)C)NC(=O)[C@@H](C)NC(=O)[C@@H](CCC(=O)O)NC(=O)[C@@H](Cc2ccccc2)NC(=O)[C@@H](C)NC(=O)[C@@H](CC(C)C)NC(=O)[C@H]2CCCN2C(=O)[C@@H](Cc2c[nH]c3ccccc23)NC(=O)[C@@H](Cc2c[nH]c3ccccc23)NC(=O)[C@@H](CC(=O)O)NC(=O)CCOCCOCCOCCNC(=O)CCCCC[N+]2=C(/C=C/C=C/C=C3N(C)c4ccc(S(=O)(=O)O)cc4C3(C)C)C(C)(C)c3cc(S(=O)(=O)[O-])ccc32)C(C)C)C(N)=O)nn1)C(=O)N[C@@H](Cc1ccc(O)cc1)C(=O)N[C@@H](Cc1ccccc1)C(=O)N1CCC[C@H]1C(=O)N[C@@H]1CCSSC[C@@H](C(=O)O)NC(=O)[C@H](Cc2ccccc2)NC(=O)[C@H](C)NC(=O)[C@H](Cc2ccccc2)NC(=O)[C@H](CCC(N)=O)NC1=O [2Cy] (I: {X2-PEG3}-[dD][dW][dW][dP][dL][dA][dF][dE][dA][dL][dL][dR]GGEV[Cit][PEG3][Pra]-NH2 / II: Ac-[Lys(N3)]YFP[d(hCys)]QFAFC-OH; triazole I:19-II:1; disulfide II:5-II:10),almost no intact peptide was detected,valine-citrulline linker was quickly cleaved,no successful measurements were obtained,,,,
I: GSVSHHHHHHGGHHHH[PEG3][dK]([PEG3-X1])[dD][dW][dW][dP][dL][dA][dF][dE][dA][dL][dL][dR]GEV[Cit][PEG3][Pra]-NH2 / II: Ac-[Lys(N3)]YFP[d(hCys)]QFAFC-OH (triazole I:36-II:1; disulfide II:5-II:10) [3Cy],almost no intact peptide was detected,valine-citrulline linker was quickly cleaved,no successful measurements were obtained,1 h,completely removed,90 nM,uptake slightly higher than that of 2Cy

# From article PMC12814185, “Receptor-Mediated Shuttling of a D‑Amino Acid Peptide Achieves High Nanomolar Cytosolic Concentrations” (Journal of the American Chemical Society, 2025)
